In publication PMC10300026, “Discovery of an OTUD3 inhibitor for the treatment of non-small cell lung cancer” (Cell Death & Disease, 2023):

Molecular target: T1, OTUD3 (Homo sapiens, UniProt Q5T2D3)
T1 construct: OTUD3 OTU (aa 52-209)
T1 sequence (Q5T2D3 52-209): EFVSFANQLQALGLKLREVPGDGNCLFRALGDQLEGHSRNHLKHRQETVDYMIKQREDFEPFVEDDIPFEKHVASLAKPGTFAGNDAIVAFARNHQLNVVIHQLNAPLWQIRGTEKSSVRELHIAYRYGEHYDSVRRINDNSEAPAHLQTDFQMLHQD
Assay: SPR (Biacore T200, CM5 chip); supported by in vitro K48/K63 di-ubiquitin cleavage inhibition
Assay type: binding

Kd: 320 nM
Compound: O=C(Nc1cccc(-c2nc3ccccc3[nH]2)c1)c1ccc(S(=O)(=O)N2CCc3ccccc3C2)cc1 [compound 16, 4-[dioxo(1,2,3,4-tetrahydroisoquinolin-2-yl)-λ6-sulfanyl]-N-[3-(1H-benzo[d]imidazol-2-yl)phenyl]benzamide]
